Measured values reported in patent US20020061346A1, “FOOD COMPOSITION” (priority 1998, published 2002).

Experiment: Post-prandial study: carotenoid levels in triglyceride-rich blood fractions after a tomato-based meal with plant sterols
Format: in vivo, human
Conditions: 20 healthy adult volunteers; single meal with 130 g chunky tomato sauce (5.2 mg lycopene, 2.2 mg beta-carotene) and 2.2 g plant sterols; blood samples over 8 hours; pre-meal level taken as zero
Description: A post-prandial study was undertaken, in which 20 healthy, adult, human volunteers, 10 male, 10 female (age 30-65) were provided with an early-morning tomato-based meal, after which at regular intervals and for a period of 8 hours blood samples were taken. In the triglyceride-rich fractions (mainly consisting of chylomicrons that carry the digested fat and fat-soluble components from the intestine to the liver) of those blood samples the levels of lycopene, beta-carotene and also vitamin A were determined (using straight-phase HPLC analysis using a nucleosil cyanyl-bonded column). The levels of vitamin A (measured as retinyl palmitate) and beta-carotene can be taken together as a measure for beta-carotene uptake, as during absorption (or shortly thereafter) beta-carotene is partly converted into vitamin A. The integrated post-prandial response can then be used to estimate the bioavailability of beta-carotene and lycopene from a meal.
The meal consisted of 200 g of cooked macaroni, 130 g of chunky tomato sauce (containing more chunks of tomato flesh than most commercial tomato sauces) made of yellow, orange and super red varieties, 80 g of lean cooked ham (gammon), 20 g of white bread, and 11.6 g of sunflower oil (stripped, i.e. low in antoixidants) and 2.2 g of plansterols. […]

| post-prandial response (level in triglyceride-rich blood fractions, FIG. 1) | Compound |
| --- | --- |
| clear post-prandial response | CC(C)=CCC/C(C)=C/C=C/C(C)=C/C=C/C(C)=C/C=C/C=C(C)/C=C/C=C(C)/C=C/C=C(\C)CCC=C(C)C [lycopene] |
| clear post-prandial response | CC1=C(/C=C/C(C)=C/C=C/C(C)=C/C=C/C=C(C)/C=C/C=C(C)/C=C/C2=C(C)CCCC2(C)C)C(C)(C)CCC1 [beta-carotene] |
